Measurements from patent US7897620B2, “Methods of using anti-inflammatory compounds” (Cambridge Enterprise Limited, priority 2007, dated 2011).

Tested on: lung leukocyte recruitment and T-helper cell polarisation
Assay: Ovalbumin-induced lung inflammation model of asthma (BAL leukocyte count, splenocyte Th1/Th2 ratio)
Assay type: in vivo, Brown Norway rat
Details: rat, 0.3 mg/kg daily oral
Experimental: Adult Brown Norway rats (200-300 g body weight; n=10 per group) were sensitised by a single intraperitoneal injection of 0.1 mg Ovalbumin on day 0. Each rat then received an intratracheal challenge with a solution of 1% ovalbumin (w/v) on day 8, and with 2% ovalbumin (w/v) on days 15, 18 and 21. The animals were then sacrificed 3 hours after the final challenge on day 21. Note that ovalbumin (Sigma; purest available grade) was made endotoxin-free by passage over EndoTrap™ Red columns (purchased from Cambrex; used in accordance with the manufacturer's instructions), and the endotoxin level was confirmed as <5 EU/mg protein using the LAL assay (QCL-1000™; Cambrex; performed in accordance with the manufacturer's instructions; 1 mg of standard endotoxin contains ˜900,000 EU/mg). […]
On sacrifice, total lung leukocyate recruitment was assessed by performing a broncheoalveolar lavage (BAL) using 4 lots of 3 ml sterile phosphate-buffered saline introduced through a tracheal cannula. For each animal, the BAL washes were combined, and the total cell population counted (using a haemocytometer). […]
The spleen was also removed from each […] and placed in RPMI+10% FCS+antibiotics. […] The resulting cell suspension was then centrifuged (328 g; 5 mins) and washed in RPMI+10% FCS+antibiotics, before being resuspended in fresh media and counted using a haemocytometer. […]

With `CC(C)(C)C(=O)N[C@H]1CCCNC1=O` [Compound (I′), 3-(2′,2′-dimethylpropanoylamino)-tetrahydropyridin-2-one] the “Th2 polarisation (Th1/Th2 ratio of CD4+ splenocytes)” value was “completely abolishes the Th2 polarisation”.
